Test results published in the kinase profiling compilation of Christmann-Franck et al. (2016).

Assays:
Experiment in all cases: radiometric filter-binding kinase assay
CHEK1 (human) = CHEK1 (human) (UniProt O14757)
GCK (human) = GCK (human) (UniProt Q12851)
IGF1R (human) = IGF1R (human) (UniProt P08069)
MAPKAPK3 (human) = MAPKAPK3 (human) (UniProt Q16644)
CAMKK2 (human) = CAMKK2 (human) (UniProt Q96RR4)
TAOK1 (human) = TAOK1 (human) (UniProt Q7L7X3)
ROCK2 (rat) = settings: accession and sequence are those of the human protein
MAP3K5 (human) = MAP3K5 (human) (UniProt Q99683)
STK3 (human) = STK3 (human) (UniProt Q13188)
PRKCA (human) = PRKCA (human) (UniProt P17252)
DYRK1A (human) = DYRK1A (human) (UniProt Q13627)
MARK1 (human) = MARK1 (human) (UniProt Q9P0L2)
[1] = system: AKT2 (human), P31751 [S474D]
MAPKAPK5 (human) = MAPKAPK5 (human) (UniProt Q8IW41)
Sequence of MAPKAPK5 (human) (Q8IW41 whole entry, looked up): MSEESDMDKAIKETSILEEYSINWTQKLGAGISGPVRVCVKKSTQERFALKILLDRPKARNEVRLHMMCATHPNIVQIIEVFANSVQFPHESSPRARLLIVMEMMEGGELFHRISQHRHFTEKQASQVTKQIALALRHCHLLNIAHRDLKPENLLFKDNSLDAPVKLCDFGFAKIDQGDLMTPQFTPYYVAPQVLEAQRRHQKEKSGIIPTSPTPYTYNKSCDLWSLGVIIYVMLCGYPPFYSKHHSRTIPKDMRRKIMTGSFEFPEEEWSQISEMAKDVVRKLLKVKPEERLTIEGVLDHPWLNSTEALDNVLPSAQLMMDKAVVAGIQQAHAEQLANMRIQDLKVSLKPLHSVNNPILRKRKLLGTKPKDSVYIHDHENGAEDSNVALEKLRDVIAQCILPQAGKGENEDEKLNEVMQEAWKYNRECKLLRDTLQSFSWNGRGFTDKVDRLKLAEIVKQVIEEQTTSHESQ

JAK2 JH1 JH2 (human) = JAK2 JH1 JH2 (human) (UniProt O60674)
DAPK1 (human) = DAPK1 (human) (UniProt P53355)
AURKA (human) = AURKA (human) (UniProt O14965)
Sequence of AURKA (human) (O14965 whole entry, looked up): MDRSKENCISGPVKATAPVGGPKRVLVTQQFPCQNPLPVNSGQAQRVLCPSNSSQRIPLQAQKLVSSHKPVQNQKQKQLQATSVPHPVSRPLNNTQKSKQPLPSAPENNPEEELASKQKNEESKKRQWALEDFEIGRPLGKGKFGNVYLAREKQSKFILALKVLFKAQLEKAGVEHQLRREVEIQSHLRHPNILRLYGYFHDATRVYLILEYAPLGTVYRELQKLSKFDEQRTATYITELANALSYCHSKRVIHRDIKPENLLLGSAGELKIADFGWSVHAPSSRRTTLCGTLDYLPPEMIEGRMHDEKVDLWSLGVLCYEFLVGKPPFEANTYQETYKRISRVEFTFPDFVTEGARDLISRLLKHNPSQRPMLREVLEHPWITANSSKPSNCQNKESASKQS

SRPK1 (human) = SRPK1 (human) (UniProt Q96SB4)
RPS6KA5 KD1 KD2 (human) = RPS6KA5 KD1 KD2 (human) (UniProt O75582)
Sequence of RPS6KA5 KD1 KD2 (human) (O75582 whole entry, looked up): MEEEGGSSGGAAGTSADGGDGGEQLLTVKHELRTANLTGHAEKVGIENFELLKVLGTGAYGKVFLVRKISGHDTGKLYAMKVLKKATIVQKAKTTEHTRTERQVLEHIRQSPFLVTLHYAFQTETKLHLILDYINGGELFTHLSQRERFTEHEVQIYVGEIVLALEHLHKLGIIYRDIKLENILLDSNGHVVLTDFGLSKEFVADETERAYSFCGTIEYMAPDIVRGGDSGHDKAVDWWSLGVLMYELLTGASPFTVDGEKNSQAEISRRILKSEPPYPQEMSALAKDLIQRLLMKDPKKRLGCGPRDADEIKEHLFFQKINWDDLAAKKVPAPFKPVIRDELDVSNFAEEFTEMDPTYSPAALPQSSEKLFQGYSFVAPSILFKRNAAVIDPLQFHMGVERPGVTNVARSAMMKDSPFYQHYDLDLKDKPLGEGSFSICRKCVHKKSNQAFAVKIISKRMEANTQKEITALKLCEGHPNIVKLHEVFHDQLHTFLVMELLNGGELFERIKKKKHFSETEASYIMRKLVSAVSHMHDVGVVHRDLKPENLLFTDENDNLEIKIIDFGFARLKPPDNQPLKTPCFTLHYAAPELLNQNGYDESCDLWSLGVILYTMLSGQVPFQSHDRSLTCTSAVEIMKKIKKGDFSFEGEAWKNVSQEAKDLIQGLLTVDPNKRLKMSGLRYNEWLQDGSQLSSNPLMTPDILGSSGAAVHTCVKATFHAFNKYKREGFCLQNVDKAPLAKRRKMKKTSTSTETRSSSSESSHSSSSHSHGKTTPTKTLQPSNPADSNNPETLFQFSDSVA

IRAK4 (human) = IRAK4 (human) (UniProt Q9NWZ3)
SYK (human) = SYK (human) (UniProt P43405)
TBK1 (human) = TBK1 (human) (UniProt Q9UHD2)
PRKACA (human) = PRKACA (human) (UniProt P17612)
[2] = system: RPS6KB1 (human), P23443 [T412E]
CDK2 CCNA2 (human) = CDK2 CCNA2 (human) (UniProt P20248+P24941)
INSRR (human) = INSRR (human) (UniProt P14616)
PAK7 (human) = PAK7 (human) (UniProt Q9P286)
IKBKB (human) = IKBKB (human) (UniProt O14920)
Sequence of IKBKB (human) (O14920 whole entry, looked up): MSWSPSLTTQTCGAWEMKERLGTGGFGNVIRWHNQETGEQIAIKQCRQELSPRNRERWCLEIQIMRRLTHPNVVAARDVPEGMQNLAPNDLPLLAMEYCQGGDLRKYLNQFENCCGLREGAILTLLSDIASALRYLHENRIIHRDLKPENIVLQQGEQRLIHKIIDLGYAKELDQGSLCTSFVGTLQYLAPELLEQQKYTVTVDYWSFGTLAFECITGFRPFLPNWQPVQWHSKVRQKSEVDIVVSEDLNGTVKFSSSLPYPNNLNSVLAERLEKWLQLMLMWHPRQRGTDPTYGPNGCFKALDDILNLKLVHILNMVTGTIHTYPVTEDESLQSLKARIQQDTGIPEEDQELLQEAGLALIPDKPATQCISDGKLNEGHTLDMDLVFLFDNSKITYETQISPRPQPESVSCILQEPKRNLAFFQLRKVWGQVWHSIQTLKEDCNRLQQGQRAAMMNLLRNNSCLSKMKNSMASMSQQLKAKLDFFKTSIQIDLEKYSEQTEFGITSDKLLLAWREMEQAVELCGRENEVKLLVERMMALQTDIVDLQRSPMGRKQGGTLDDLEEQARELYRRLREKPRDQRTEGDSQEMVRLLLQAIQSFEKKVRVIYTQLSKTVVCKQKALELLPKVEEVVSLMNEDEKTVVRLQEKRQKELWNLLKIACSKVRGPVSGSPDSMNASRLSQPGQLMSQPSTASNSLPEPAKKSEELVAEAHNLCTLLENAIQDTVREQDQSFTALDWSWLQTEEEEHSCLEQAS

Sequence of MAPKAPK3 (human) (Q16644 whole entry, looked up): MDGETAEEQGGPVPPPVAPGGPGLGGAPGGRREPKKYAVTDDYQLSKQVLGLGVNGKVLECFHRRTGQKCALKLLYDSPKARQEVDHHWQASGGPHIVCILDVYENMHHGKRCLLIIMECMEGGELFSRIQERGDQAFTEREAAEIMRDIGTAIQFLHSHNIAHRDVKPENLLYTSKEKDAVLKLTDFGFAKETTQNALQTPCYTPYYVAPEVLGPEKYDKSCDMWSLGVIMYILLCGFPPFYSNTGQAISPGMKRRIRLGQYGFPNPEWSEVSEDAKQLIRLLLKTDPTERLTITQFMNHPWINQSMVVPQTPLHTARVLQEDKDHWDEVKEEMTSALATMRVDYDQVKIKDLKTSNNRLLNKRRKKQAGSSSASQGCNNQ
Sequence of GCK (human) (Q12851 whole entry, looked up): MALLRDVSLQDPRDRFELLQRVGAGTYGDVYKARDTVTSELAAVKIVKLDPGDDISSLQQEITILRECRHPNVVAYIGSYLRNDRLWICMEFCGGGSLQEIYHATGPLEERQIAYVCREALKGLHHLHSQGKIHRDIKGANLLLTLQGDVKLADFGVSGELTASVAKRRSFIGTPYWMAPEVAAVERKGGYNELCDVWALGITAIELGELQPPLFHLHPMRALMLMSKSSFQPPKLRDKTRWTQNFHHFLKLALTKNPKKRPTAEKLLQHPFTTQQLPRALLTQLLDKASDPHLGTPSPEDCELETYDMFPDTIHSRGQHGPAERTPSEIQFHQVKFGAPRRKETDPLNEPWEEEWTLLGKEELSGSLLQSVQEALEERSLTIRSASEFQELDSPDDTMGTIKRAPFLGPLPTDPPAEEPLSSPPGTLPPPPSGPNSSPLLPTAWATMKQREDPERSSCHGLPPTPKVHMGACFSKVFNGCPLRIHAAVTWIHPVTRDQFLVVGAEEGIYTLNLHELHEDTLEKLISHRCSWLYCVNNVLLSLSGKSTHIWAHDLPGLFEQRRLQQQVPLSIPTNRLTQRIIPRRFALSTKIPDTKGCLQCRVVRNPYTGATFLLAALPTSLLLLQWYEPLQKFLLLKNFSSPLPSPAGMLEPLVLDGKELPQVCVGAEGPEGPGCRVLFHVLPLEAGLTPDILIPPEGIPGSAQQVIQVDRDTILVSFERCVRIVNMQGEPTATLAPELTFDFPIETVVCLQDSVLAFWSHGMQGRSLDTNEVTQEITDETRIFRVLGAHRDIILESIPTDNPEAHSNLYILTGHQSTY
Sequence of IGF1R (human) (P08069 whole entry, looked up): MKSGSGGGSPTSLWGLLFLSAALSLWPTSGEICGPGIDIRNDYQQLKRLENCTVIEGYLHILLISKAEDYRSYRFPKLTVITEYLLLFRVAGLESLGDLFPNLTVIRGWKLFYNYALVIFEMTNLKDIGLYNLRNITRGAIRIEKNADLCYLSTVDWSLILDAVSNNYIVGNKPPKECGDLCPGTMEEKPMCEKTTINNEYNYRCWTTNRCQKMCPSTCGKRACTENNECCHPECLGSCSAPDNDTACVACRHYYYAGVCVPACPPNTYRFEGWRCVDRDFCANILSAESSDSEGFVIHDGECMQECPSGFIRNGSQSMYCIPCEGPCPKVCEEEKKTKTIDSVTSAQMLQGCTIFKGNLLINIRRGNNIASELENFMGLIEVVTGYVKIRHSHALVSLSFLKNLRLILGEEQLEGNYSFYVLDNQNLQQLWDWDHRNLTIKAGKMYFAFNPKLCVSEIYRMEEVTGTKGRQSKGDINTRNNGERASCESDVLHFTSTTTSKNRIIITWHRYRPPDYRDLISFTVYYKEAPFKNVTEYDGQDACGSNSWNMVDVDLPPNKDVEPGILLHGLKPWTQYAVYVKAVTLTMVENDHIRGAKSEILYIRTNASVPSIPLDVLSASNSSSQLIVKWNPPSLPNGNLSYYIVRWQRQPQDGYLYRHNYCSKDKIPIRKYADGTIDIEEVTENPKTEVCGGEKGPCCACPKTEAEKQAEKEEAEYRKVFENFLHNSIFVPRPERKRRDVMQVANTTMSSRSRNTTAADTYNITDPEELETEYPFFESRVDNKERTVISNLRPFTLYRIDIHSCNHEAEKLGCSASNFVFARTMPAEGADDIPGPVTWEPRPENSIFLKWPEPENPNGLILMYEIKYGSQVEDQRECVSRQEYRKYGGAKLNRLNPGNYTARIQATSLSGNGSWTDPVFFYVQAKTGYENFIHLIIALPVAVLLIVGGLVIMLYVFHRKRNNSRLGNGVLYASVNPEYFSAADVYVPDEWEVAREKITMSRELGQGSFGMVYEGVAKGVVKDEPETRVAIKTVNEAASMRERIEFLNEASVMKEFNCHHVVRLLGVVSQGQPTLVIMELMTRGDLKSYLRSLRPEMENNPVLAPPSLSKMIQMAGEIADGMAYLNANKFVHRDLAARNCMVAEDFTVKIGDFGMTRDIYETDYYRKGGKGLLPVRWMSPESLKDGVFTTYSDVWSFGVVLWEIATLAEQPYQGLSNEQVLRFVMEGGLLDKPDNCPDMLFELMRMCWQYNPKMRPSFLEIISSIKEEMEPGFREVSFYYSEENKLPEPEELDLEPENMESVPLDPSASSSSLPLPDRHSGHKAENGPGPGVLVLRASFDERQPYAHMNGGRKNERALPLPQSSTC

residual activity (CHEK1 (human); compound 0.1 µM): 114%
residual activity (CHEK1 (human); compound 1.0 µM): 105%
residual activity (CHEK1 (human); compound 10.0 µM): 110%
residual activity (GCK (human); compound 0.1 µM): 24.1%
residual activity (GCK (human); compound 1.0 µM): 12.3%
residual activity (GCK (human); compound 10.0 µM): 9.08%
residual activity (IGF1R (human); compound 0.1 µM): 107%
residual activity (IGF1R (human); compound 1.0 µM): 84.8%
residual activity (IGF1R (human); compound 10.0 µM): 6.46%
residual activity (MAPKAPK3 (human); compound 0.1 µM): 90.1%
residual activity (MAPKAPK3 (human); compound 1.0 µM): 82.3%
residual activity (MAPKAPK3 (human); compound 10.0 µM): 96.7%
residual activity (CAMKK2 (human); compound 0.1 µM): 98.3%
residual activity (CAMKK2 (human); compound 1.0 µM): 70.7%
residual activity (CAMKK2 (human); compound 10.0 µM): 20.7%
residual activity (TAOK1 (human); compound 0.1 µM): 98.9%
residual activity (TAOK1 (human); compound 1.0 µM): 67.3%
residual activity (TAOK1 (human); compound 10.0 µM): 26.9%
residual activity (ROCK2 (rat); compound 0.1 µM): 91.7%
residual activity (ROCK2 (rat); compound 1.0 µM): 71.2%
residual activity (ROCK2 (rat); compound 10.0 µM): 25.5%
residual activity (MAP3K5 (human); compound 0.1 µM): 111%
residual activity (MAP3K5 (human); compound 1.0 µM): 105%
residual activity (MAP3K5 (human); compound 10.0 µM): 76.5%
residual activity (STK3 (human); compound 0.1 µM): 111%
residual activity (STK3 (human); compound 1.0 µM): 124%
residual activity (STK3 (human); compound 10.0 µM): 91.5%
residual activity (PRKCA (human); compound 0.1 µM): 94%
residual activity (PRKCA (human); compound 1.0 µM): 84.4%
residual activity (PRKCA (human); compound 10.0 µM): 90.5%
residual activity (DYRK1A (human); compound 0.1 µM): 107%
residual activity (DYRK1A (human); compound 1.0 µM): 97.8%
residual activity (DYRK1A (human); compound 10.0 µM): 84.9%
residual activity (MARK1 (human); compound 0.1 µM): 114%
residual activity (MARK1 (human); compound 1.0 µM): 97.2%
residual activity (MARK1 (human); compound 10.0 µM): 103%
residual activity ([1]; compound 0.1 µM): 105%
residual activity ([1]; compound 1.0 µM): 114%
residual activity ([1]; compound 10.0 µM): 49.3%
residual activity (MAPKAPK5 (human); compound 0.1 µM): 105%
residual activity (MAPKAPK5 (human); compound 1.0 µM): 97.4%
residual activity (MAPKAPK5 (human); compound 10.0 µM): 92.2%
residual activity (JAK2 JH1 JH2 (human); compound 0.1 µM): 93.4%
residual activity (JAK2 JH1 JH2 (human); compound 1.0 µM): 92.4%
residual activity (JAK2 JH1 JH2 (human); compound 10.0 µM): 41.6%
residual activity (DAPK1 (human); compound 1.0 µM): 80.9%
residual activity (DAPK1 (human); compound 10.0 µM): 84.1%
residual activity (AURKA (human); compound 0.1 µM): 120%
residual activity (AURKA (human); compound 1.0 µM): 121%
residual activity (AURKA (human); compound 10.0 µM): 102%
residual activity (SRPK1 (human); compound 0.1 µM): 102%
residual activity (SRPK1 (human); compound 1.0 µM): 97.1%
residual activity (SRPK1 (human); compound 10.0 µM): 73%
residual activity (RPS6KA5 KD1 KD2 (human); compound 0.1 µM): 81.2%
residual activity (RPS6KA5 KD1 KD2 (human); compound 1.0 µM): 45.8%
residual activity (RPS6KA5 KD1 KD2 (human); compound 10.0 µM): 21.4%
residual activity (IRAK4 (human); compound 0.1 µM): 98.6%
residual activity (IRAK4 (human); compound 1.0 µM): 102%
residual activity (SYK (human); compound 0.1 µM): 103%
residual activity (SYK (human); compound 1.0 µM): 47.1%
residual activity (SYK (human); compound 10.0 µM): 11.5%
residual activity (TBK1 (human); compound 0.1 µM): 113%
residual activity (TBK1 (human); compound 1.0 µM): 100%
residual activity (TBK1 (human); compound 10.0 µM): 96%
residual activity (PRKACA (human); compound 0.1 µM): 100%
residual activity (PRKACA (human); compound 1.0 µM): 93.4%
residual activity (PRKACA (human); compound 10.0 µM): 76.2%
residual activity ([2]; compound 0.1 µM): 107%
residual activity ([2]; compound 1.0 µM): 63.6%
residual activity ([2]; compound 10.0 µM): 12.9%
residual activity (CDK2 CCNA2 (human); compound 0.1 µM): 110%
residual activity (CDK2 CCNA2 (human); compound 1.0 µM): 112%
residual activity (CDK2 CCNA2 (human); compound 10.0 µM): 99.9%
residual activity (INSRR (human); compound 0.1 µM): 112%
residual activity (INSRR (human); compound 1.0 µM): 91.3%
residual activity (INSRR (human); compound 10.0 µM): 46.1%
residual activity (PAK7 (human); compound 0.1 µM): 108%
residual activity (PAK7 (human); compound 1.0 µM): 104%
residual activity (PAK7 (human); compound 10.0 µM): 87.5%
residual activity (IKBKB (human); compound 0.1 µM): 114%
residual activity (IKBKB (human); compound 1.0 µM): 101%
residual activity (IKBKB (human); compound 10.0 µM): 44.6%
Structure (SMILES): CCN1CCN(Cc2ccc(NC(=O)c3ccc(C)c(Oc4ccnc5[nH]ccc45)c3)cc2C(F)(F)F)CC1
